Data as given in ChEMBL document CHEMBL3351367, “Base-dependent formation of cis and trans olefins and their application in the synthesis of 5-oxo-ETE receptor antagonists” (Bioorg Med Chem Lett, 2014).

Target: Oxoeicosanoid receptor 1 (Homo sapiens, UniProt Q8TDS5)
Test: Antagonist activity at 5-oxo-ETE receptor in human neutrophils assessed as inhibition of 5-oxo-ETE-induced Ca2+ mobilization incubated for 2 mins prior to 5-oxo-ETE addition by indo-1 staining-based spectrofluorometry
Format: functional

Oxoeicosanoid receptor 1, sequence (Q8TDS5 whole entry): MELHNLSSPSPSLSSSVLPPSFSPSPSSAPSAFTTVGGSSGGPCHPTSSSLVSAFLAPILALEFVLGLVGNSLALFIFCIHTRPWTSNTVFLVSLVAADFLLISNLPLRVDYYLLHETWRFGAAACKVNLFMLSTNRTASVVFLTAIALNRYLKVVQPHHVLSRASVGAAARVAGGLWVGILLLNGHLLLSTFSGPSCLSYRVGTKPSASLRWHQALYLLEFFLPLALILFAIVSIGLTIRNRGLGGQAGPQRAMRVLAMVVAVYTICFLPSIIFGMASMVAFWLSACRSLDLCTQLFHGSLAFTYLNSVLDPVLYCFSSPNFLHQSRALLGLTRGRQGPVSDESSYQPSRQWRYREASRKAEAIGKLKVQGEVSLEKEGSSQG

IC50 [µM] | Compound
18.5 | CCCC/C=C/c1cc2ccc(Cl)cc2n1C(=O)CC(C)CC(=O)O (configuration not stated)
0.46 | CCCC/C=C\c1cc2ccc(Cl)cc2n1C(=O)CC(C)CC(=O)O (configuration not stated)
